Key:
[1] = test system: Friend Leukemia Virus (FLV); experiment: Anti-Friend Leukemia Virus plaque inhibition in FG-10 cells; format: cell-based; details: FG-10 cells infected with FLV; compound added one hour after infecting; 3 + 3 days incubation; read-out: IC50 (concentration giving 50% inhibition of plaques)
Experimental: The enhancement of the Anti-Friend Leukemia Virus (FLV) activity of zidovudine by bacterial thymidine phosphorylase is shown in Table 1. FG-10 cells were used seeded on a plate one day before they were infected with FLV. One hour after infecting, known concentrations of the test compound or combination were added. The plates were incubated for 3 days, the media replaced with fresh McCoy's 5A media and incubated another 3 days.

[2] = test system: herpes simplex type 1 (KOS strain); experiment: Plaque reduction assay in Vero cells; format: cell-based; details: HSV-1 KOS, three days
Experimental: Antiviral activity was determined using a plaque reduction assay. Petri plates were seeded with Vero cells which were then allowed to grow to confluency. Each plate was then infected with a fixed number of plaque forming units (abut 100-500) of herpes simplex type 1 (KOS strain). The inhibitors, either alone or in the indicated combinations, were dissolved to give the indicated concentration in minimal essential medium containing 2% heat inactivated fetal calf serum and 0.5% human immune serum globulin: One hour after infection the solutions (10 ml per plate) were added to the cultures. Three days later the cultures were formalin-fixed and stained with crystal violet, and the plaques were counted.

Row | Structure (SMILES) | IC50 [1] [nM] | Average Plaque Count ([2]; Conc. 0.1 μM) | Average Plaque Count ([2]; Conc. 0.25 μM) | Average Plaque Count ([2]; Conc. 0.5 μM) | Average Plaque Count ([2]; Conc. 1.0 μM) | Average Plaque Count ([2]; Conc. 2.5 μM) | Average Plaque Count ([2]; Conc. 5.0 μM) | Average Plaque Count ([2]; Conc. 7.5 μM) | Average Plaque Count ([2]; Conc. 10 μM) | inhibition at 0.1 µM ([2]; Human alphaherpesvirus 1, 72 h, Conc. 0.1 μM) [%] | inhibition at 0.25 µM ([2]; Human alphaherpesvirus 1, 72 h, Conc. 0.25 μM) [%] | inhibition at 0.5 µM ([2]; Human alphaherpesvirus 1, 72 h, Conc. 0.5 μM) [%] | inhibition at 1 µM ([2]; Human alphaherpesvirus 1, 72 h, Conc. 1.0 μM) [%] | inhibition at 2.5 µM ([2]; Human alphaherpesvirus 1, 72 h, Conc. 2.5 μM) [%] | inhibition at 5 µM ([2]; Human alphaherpesvirus 1, 72 h, Conc. 5.0 μM) [%] | inhibition at 7.5 µM ([2]; Human alphaherpesvirus 1, 72 h, Conc. 7.5 μM) [%] | inhibition at 10 µM ([2]; Human alphaherpesvirus 1, 72 h, Conc. 10 μM) [%]
1 | Cc1cn([C@H]2C[C@H](N=[N+]=[N-])[C@@H](CO)O2)c(=O)[nH]c1=O [Zidovudine, 3′-azido-3′-deoxythymidine] | 5 | – | – | – | – | – | – | – | – | – | – | – | – | – | – | – | –
2 | Nc1nc2c(ncn2COCCO)c(=O)[nH]1 [Acyclovir, 9-[(2-hydroxyethoxy)methyl]guanine] | – | 316.5 | 298 | 290.5 | 230 | 182 | 88 | 54 | 34.5 | 11.6 | 16.7 | 19 | 35.8 | 49.2 | 75.4 | 84.9 | 90.4

Reference: patent EP0289229A1, “Antiviral combinations” (THE WELLCOME FOUNDATION LIMITED, priority 1987, dated 1988)
